Reference: article PMC10380385, “Synthesis, In Vitro, and In Vivo Investigations of Pterostilbene-Tethered Analogues as Anti-Breast Cancer Candidates” (International Journal of Molecular Sciences, 2023)
Values joined by “and” are separate entries in the source; they are usually repeats but may differ in a detail not shown here. Identical values can stand only once.

Assays:
MCF-7 cells [1] = assay: MTT anti-proliferative assay, MCF-7; assay type: cell-based; details: Homo sapiens, MCF7, 48 h
Description: (§1) The in vitro anti-proliferative activity of all synthesized analogues against MDA-MB-231 and MCF-7 cells was tested using the 3-(4,5-dimethylthiazol-2-yl)-[…] (MTT) method. […] Usually, Dox has been used as a positive control in many basic studies, especially drug screening assay. […] In the meantime, the cytotoxic activity of 2K–2N, PTE, and Dox against MCF-10A (human breast epithelial cell line) was examined. […] By contrast, the substitution of a saturated six-membered nitrogen heterocyclic ring on the side chain is extremely favorable for enhancing anti-BC efficacy (2L–2N vs. 1, PTE, 2A–2J). Based on the preceding analysis, analogue 2L was selected as the most promising anti-BC agent and used in the follow-up study.
(§2) The human breast cancer cell lines MDA-MB-231 and MCF-7 were purchased from the Chinese Academy of Science and cultured in Dulbecco’s modified Eagle’s medium (DMEM, Gibco, New York, NY, USA) containing 10% fetal bovine serum (FBS), 2 mM L-glutamine, 100 U/mL penicillin, and 100 μg/mL streptomycin. Then, the cells were maintained in a humidified incubator at 37 °C in the presence of 5% CO2.
(§3) The MTT assay was used to test the effect of PTEs on cell viability. The MDA-MB-231 (3 × 10^3 cells/well) and MCF-7 (4 × 10^3 cells/well) cells were seeded in a 96-well plate and cultured at 37 °C in a 5% CO2 incubator overnight. Afterwards, the medium was replaced with different concentrations of the title compounds (1, 3, 10, 30, and 100 μM). After incubation for 48 h, 10 μL of MTT solution (5 mg/mL) was added to each well and incubated for another 4 h. The optical density (OD) of the samples was measured using a microplate reader (Biotek, Burlington, VT, USA) at 570 nm. The inhibition rate (%) = [A570 (control) − A570 (compound)]/A570 (control) × 100%. The IC50 values were calculated using SPSS software version 17.0 (SPSS Inc., Chicago, IL, USA).

MDA-MB-231 cells [2] = assay: MTT anti-proliferative assay, MDA-MB-231; assay type: cell-based; details: Homo sapiens, 48 h
Description: as §1, §2, §3

[3] = tested on: MCF-10A (human breast epithelial cell line); assay: Cytotoxic activity against MCF-10A; assay type: cell-based; details: cytotoxicity, normal breast epithelial cells
Description: as §1

MDA-MB-231 xenograft = assay: MDA-MB-231-derived xenograft mouse model; assay type: in vivo; details: for tumor growth inhibition (TGI): intraperitoneal, every other day, 10 treatments, by tumor weight
Description: BALB/c nude mice (female, 6–7 weeks) were purchased from Changsheng Biotechnology Co., Ltd. (Liaoning, China). MDA-MB-231 cells (5 × 10^6 cells/mouse) were injected subcutaneously into the right back of the nude mice. When the tumor volume reached approximately 55 mm^3, the female mice were randomly divided into two treatment groups (25, 50 mg/kg) and a vehicle group (equal volume of normal saline) with five mice in each group. Throughout the experiment, 2L and saline were intraperitoneally injected every other day for 10 treatments. At the same time, the changes in tumor volume and body weight of the nude mice were tracked and recorded. The tumor volumes were assessed using the formula: V (mm^3) = (length × width^2)/2. At the end of the experimental period, tumor tissues were harvested, weighed, and collected. The TGI rate was calculated by the average tumor weight of the 2L-treated and control groups.

[4] = tested on: apoptosis-related proteins in MCF-7 cells; assay: Western blot of apoptosis-related proteins, MCF-7; assay type: cell-based, human; details: MCF-7, 2L 1.1, 3.3, 10 μM, 24 h
Description: (§4) MDA-MB-231 and MCF-7 cells were cultured in a 6-well plate with the density of 3 × 10^5 cells/well and treated with different concentrations of 2L (0, 1.1, 3.3, 10 μM) for 24 h. The cells were lysed in radioimmunoprecipitation assay (RIPA) buffer (Beyotime, Shanghai, China) containing 1% protease inhibitor cocktail and 1 mM phenylmethylsulfonyl fluoride (PMSF, Sigma-Aldrich, St. Louis, MO, USA). After centrifugation, the supernatant was collected and quantified by BCA assay (Beyotime). Lysates were mixed with the loading buffer (5 ×) and denatured by boiling for 10 min. Then, the equivalent samples were separated via 10–15% sodium dodecyl–sulfate polyacrylamide gel electrophoresis (SDS-PAGE), transferred to 0.45 µm immunoblot poly(vinylidene fluoride) (PVDF) membranes (Merck Millipore, Darmstadt, Germany) at 4 °C, and blocked in 5% skimmed milk in TBST for 1 h at room temperature. The membranes were incubated overnight at 4 °C with specific primary antibodies. After washing three times with TBST, the PVDF membranes were incubated with horseradish peroxidase (HRP)-conjugated secondary antibodies at rt for 1 h. Lastly, the resulting bands were visualized by a Bio-Rad ChemiDoc imaging system ([…]) using enhanced chemiluminescence reagents (Millipore, Billerica, MA, USA). The details of the corresponding primary antibodies were as follows: Bax (2772; Cell Signaling Technology), Bcl-2 (3498; Cell Signaling Technology), cleaved caspase-3 (9661; Cell Signaling Technology), cleaved caspase-9 (9505; Cell Signaling Technology), and PARP (9542; Cell Signaling Technology). The HRP-secondary antibodies were also obtained from Cell Signaling Technology (Boston, MA, USA).

MDA-MB-231 cells [5] = assay: Annexin V-FITC/PI apoptosis flow cytometry, MDA-MB-231; assay type: cell-based, human
Description: (§5) MDA-MB-231 and MCF-7 cells (3 × 10^5 cells/well) were seeded into 6-well plates. After that, the cells were treated with 2L (0, 10 μM) for 24 h. Cells were harvested, washed repeatedly with cold phosphate-buffered saline (PBS), and resuspended in 195 μL of binding buffer. Then, 4 μL annexin V-FITC reagent (Beyotime) and 8 μL propidium iodide (PI, Beyotime) were added to the samples and gently mixed. After incubation for 15 min in the dark at room temperature, the stained cells were immediately detected by a FACScan flow cytometer (BD Biosciences, San Jose, CA, USA) and analyzed with the annexin V-FITC/PI apoptosis method.

MDA-MB-231 cells [6] = assay: Intracellular ROS, DCFH-DA, MDA-MB-231; assay type: cell-based, human; details: MDA-MB-231, 2L 24 h, vs control
Description: (§6) The Reactive Oxygen Species Assay Kit was used to measure intracellular ROS levels. MDA-MB-231 and MCF-7 cells (6 × 10^4 cells/well) were seeded onto 24-well plates and treated with 2L (0, 10 μM) for 24 h. Subsequently, the cells were washed with PBS and stained with dichlorodihydrofluorescein diacetate (DCFH-DA, 10 μM) at 37 °C for 20 min in the dark. Following three washes with serum-free DMEM, the fluorescence alteration was photographed using a fluorescence microscope.
(§7) MDA-MB-231 and MCF-7 cells were plated in 6-well plates with a density of 3 × 10^5 cells/well. After exposure to 2L for 24 h, the cells were incubated with 10 μM DCFH-DA at 37 °C for 20 min in the dark. Later, the cells were slightly washed three times with serum-free DMEM and centrifuged (1000 rpm, 5 min). The collected cells were resuspended in PBS and loaded into a flow cytometer.

MDA-MB-231 cells [7] = assay: DNA content / cell cycle of PI-stained cells by flow cytometry, MDA-MB-231; assay type: cell-based, human; details: MDA-MB-231, 10.0 μM
Excerpt: (§8) It is commonly acknowledged that […] DNA fragmentation is a crucial hallmark of cell apoptosis. Next, we assessed the influence of 2L on the DNA content of PI-stained BC cells using flow cytometry. […] In turn, treatment with 2L led to an apparent enhancement of the number of MCF-7 cells, from 51.7% to 63.0%. […] An augmentation of DNA distribution in the SubG1 peak was representative of the occurrence of apoptosis in 2L-exposed groups, which further confirmed that 2L could induce the apoptosis of BC cells. In addition, the quantitative analysis of DNA distribution for the subG1, G0/G1, S, and G2/M phases appeared to show similar alterations (Figure 4B,D).

MCF-7 cells [8] = assay: Mitochondrial membrane potential JC-1 assay, MCF-7; assay type: cell-based, human; details: MCF-7, 24 h, flow cytometry
Description: (§9) The MMP was assayed using a JC-1 assay kit (Beyotime, Shanghai, China) according to the manufacturer’s instructions. In brief, MDA-MB-231 and MCF-7 cells were plated in 24-well plates at a density of 6 × 10^4 cells per well. After intervention with 2L (0, 10 μM) for 24 h, the cells were washed once with PBS. Cell culture solution (0.5 mL) and JC-1 working solution (0.5 mL) were successively added, mixed well, and incubated at 37 °C for 20 min in the dark. After washing twice with 1 × JC-1 staining buffer, the cells were resuspended in fresh culture medium. The graphical results were observed under a fluorescence microscope.
(§10) MDA-MB-231 and MCF-7 cells were incubated in 6-well plates at a density of 3 × 10^5 cells per dish and exposed to 2L for 24 h. Cell culture media (1 mL) and JC-1 staining working solution (1 mL) were added, thoroughly mixed, and incubated at 37 °C for 20 min. After washing twice with 1 × JC-1 staining buffer, the cells were collected and resuspended in 500 μL JC-1 staining buffer and then instantly analyzed using a flow cytometry.

MCF-7 cells [9] = assay: DNA content / cell cycle of PI-stained cells by flow cytometry, MCF-7; assay type: cell-based, human; details: MCF-7, 10.0 μM
Excerpt: as §8

[10] = tested on: apoptosis-related proteins in MDA-MB-231 cells; assay: Western blot of apoptosis-related proteins, MDA-MB-231; assay type: cell-based, human; details: MDA-MB-231, 2L 1.1, 3.3, 10 μM, 24 h
Description: as §4

MDA-MB-231 cells [11] = assay: Mitochondrial membrane potential JC-1 assay, MDA-MB-231; assay type: cell-based, human; details: MDA-MB-231, 24 h, flow cytometry
Description: as §9, §10

MCF-7 cells [12] = assay: Intracellular ROS, DCFH-DA, MCF-7; assay type: cell-based, human; details: MCF-7, 2L 24 h, vs control
Description: as §6, §7

MCF-7 cells [13] = assay: Annexin V-FITC/PI apoptosis flow cytometry, MCF-7; assay type: cell-based, human
Description: as §5

SMILES: COc1cc(/C=C/c2ccc(OCCCn3ccnc3)cc2)cc(OC)c1 [Compound 2K, (E)-1-(3-(4-(3,5-dimethoxystyryl)phenoxy)propyl)-1H-imidazole]
- IC50 (MCF-7 cells [1]): 21 ± 0.56 µM
- IC50 (MDA-MB-231 cells [2]): 18.7 ± 0.71 µM
- IC50 [3]: 49 ± 1.31 µM

SMILES: COc1cc(/C=C/c2ccc(OCCCN3CCCCC3)cc2)cc(OC)c1 [Compound 2L, (E)-1-(3-(4-(3,5-dimethoxystyryl)phenoxy)propyl)piperidine]
- tumor growth inhibition (TGI) (MDA-MB-231 xenograft; 25 mg/kg): 42.0%
- tumor growth inhibition (TGI) (MDA-MB-231 xenograft; 50 mg/kg): 69.9%
- toxicity in nude mice (body weight fluctuation) (MDA-MB-231 xenograft; 25 and 50 mg/kg, whole study): no obvious toxicity
- level of Bcl-2 protein in tumor tissues (MDA-MB-231 xenograft; Western blot, vs control group): decreased
- protein expression of Bax in tumor tissues (MDA-MB-231 xenograft; Western blot, vs control group): noticeably increased
- protein expression of cleaved PARP in tumor tissues (MDA-MB-231 xenograft; Western blot, vs control group): noticeably increased
- expression of Bcl-2 [4]: markedly downregulated
- level of Bax [4]: upregulated
- protein expression of cleaved caspase-3 [4]: increase
- protein expression of cleaved caspase-9 [4]: increase
- protein level of cleaved PARP [4]: effectively elevate
- apoptosis ratio with NAC (MDA-MB-231 cells [5]; MDA-MB-231, 2L 10 μM + 5 mM NAC): 8.8%
- apoptosis ratio with Z-VAD-FMK (MDA-MB-231 cells [5]; MDA-MB-231, 2L 10 μM + Z-VAD-FMK 20 μM): 6.2%
- apoptotic percentage (early and late) (MDA-MB-231 cells [5]; MDA-MB-231, 2L 10 μM, 24 h): 12.7% and 16.1% and 13.1%
- mean ROS-associated fluorescence intensity (MDA-MB-231 cells [6]): greatly increased
- IC50 (MCF-7 cells [1]): 11.7 ± 0.55 µM
- percentage of cells in subG1 (MDA-MB-231 cells [7]): 7.99%
- proportion of cells in G0/G1 phase (MDA-MB-231 cells [7]): 61.7%
- IC50 (MDA-MB-231 cells [2]): 10.4 ± 0.4 µM
- ΔΨm level after 2L (MCF-7 cells [8]): 85.0%
- percentage of cells in subG1 (MCF-7 cells [9]): 7.83%
- proportion of cells in G0/G1 phase (MCF-7 cells [9]): 63.0%
- expression of Bcl-2 [10]: markedly downregulated
- level of Bax [10]: upregulated
- protein expression of cleaved caspase-3 [10]: increase
- protein expression of cleaved caspase-9 [10]: increase
- protein level of cleaved PARP [10]: effectively elevate
- ΔΨm level after 2L (MDA-MB-231 cells [11]): 83.9%
- IC50 [3]: 68.9 ± 0.93 µM
- mean ROS-associated fluorescence intensity (MCF-7 cells [12]): greatly increased
- apoptosis ratio with NAC (MCF-7 cells [13]; MCF-7, 2L 10 μM + 5 mM NAC): 6.7%
- apoptosis ratio with Z-VAD-FMK (MCF-7 cells [13]; MCF-7, 2L 10 μM + Z-VAD-FMK 20 μM): 6.5%
- apoptotic percentage (early and late) (MCF-7 cells [13]; MCF-7, 2L 10 μM, 24 h): 14.0% and 14.5% and 12.2%

SMILES: COc1cc(/C=C/c2ccc(OCCCN3CCOCC3)cc2)cc(OC)c1 [Compound 2M, (E)-4-(3-(4-(3,5-dimethoxystyryl)phenoxy)propyl)morpholine]
- IC50 (MCF-7 cells [1]): 42 ± 0.79 µM
- IC50 (MDA-MB-231 cells [2]): 49.3 ± 2.48 µM
- IC50 [3]: 70.39 ± 0.43 µM

SMILES: COc1cc(/C=C/c2ccc(OCCCN3CCN(C)CC3)cc2)cc(OC)c1 [Compound 2N, (E)-1-(3-(4-(3,5-dimethoxystyryl)phenoxy)propyl)-4-methylpiperazine]
- IC50 (MCF-7 cells [1]): 18.1 ± 0.55 µM
- IC50 (MDA-MB-231 cells [2]): 17.7 ± 0.81 µM
- IC50 [3]: 37.3 ± 0.96 µM

SMILES: COc1cccc2c1C(=O)c1c(O)c3c(c(O)c1C2=O)C[C@@](O)(C(=O)CO)C[C@@H]3O[C@H]1C[C@H](N)[C@H](O)[C@H](C)O1 [Dox, Doxorubicin, reference compound]
- IC50 (MCF-7 cells [1]): 3.57 ± 0.41 µM
- IC50 (MDA-MB-231 cells [2]): 2.3 ± 0.32 µM
- IC50 [3]: 2.27 ± 0.19 µM

SMILES: COc1cc(/C=C/c2ccc(O)cc2)cc(OC)c1 [PTE, 3,5-dimethoxy-4′-hydroxy-trans-stilbene, reference compound]
- IC50 (MCF-7 cells [1]): 44.3 ± 0.48 µM
- IC50 (MDA-MB-231 cells [2]): 63.59 ± 0.4 µM
- IC50 [3]: > 100 µM
